Converted amounts (≈) assume the structure as drawn.
Tests used:
[1] = target: Escherichia coli UDP-2,3-diacylglucosamine hydrolase (LpxH) (Escherichia coli (strain K12), UniProt P43341); experiment: Enzymatic IC50 assay of Escherichia coli LpxH (UMP/CMP-Glo luminescence); assay type: biochemical; conditions: Enzymatic IC50 against Escherichia coli LpxH; read-out: IC50 (converted)
Procedure: The inhibitory potency of compounds of Escherichia coli UDP-2,3-diacylglucosamine hydrolase (LpxH) was determined in an enzymatic assay. UDP-2,3-diacylglucosamine (UDP-DAG) was purified from the Caulobacter crescentus LpxI D225A mutant protein that contained a tightly bound UDP-DAG molecule. The enzyme was diluted using assay buffer containing 50 mM NaCl, 20 mM Tris-HCl pH7.5, 2.5 mM MnCl2, 0.01% Triton X-100.1 mg/mL BSA, and the final concentration is 2 nM. The compounds were diluted by Agilent liquid handler Bravo, the compound's serial dilution dose ranges from 100 μM to 1.7 nM. Then the enzyme and compounds mixture were incubated at room temperature for 10 mins. The enzymatic assay was started by adding UDP-DAG (FAC is 5 μM) and incubated for 20 mins at room temperature. The plate was then heated to 95° C. for 15 mins on a water batch to stop the reaction. The hydrolysis of UDP-DAG by LpxH yielded 2,3-diacylglucosamine 1-phosphate (lipid X) and UMP, which was converted to ATP and quantified by the luciferase reaction using the UMP/CMP-Glo™ Glycosyltransferase Assay kit from Promega. The compound's inhibitory effect of LpxH is determined by measuring the light change using a luminometer (Envision).

[2] = test system: Escherichia coli BW 25113; experiment: Minimal Inhibitory Concentration (MIC) broth dilution assay, E. coli BW 25113; assay type: cell-based; conditions: Escherichia coli, BW25113, 20 hours at 35° C., CAMHB, read-out: MIC E. coli K-12 BW 25113
In short: (§1)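 Broth microdilution with twofold compound series in cation-adjusted Mueller Hinton broth, inoculum 5×10^5 CFU/mL, applied to each strain. Plates incubated 20 h at 35 °C in ambient air. MIC […] recorded as the lowest concentration with no visible growth, read by eye.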

[3] = test system: Escherichia coli ATCC 25922; experiment: Minimal Inhibitory Concentration (MIC) broth dilution assay, E. coli ATCC 25922; assay type: cell-based; conditions: Escherichia coli, ATCC25922, 20 h, read-out: MIC E. coli ATCC 25922
In short: as §1

[4] = test system: Klebsiella pneumonia ATCC 43816; experiment: Minimal Inhibitory Concentration (MIC) broth dilution assay, K. pneumonia ATCC 43816; assay type: cell-based; conditions: Klebsiella pneumoniae, ATCC43816, 20 hours at 35° C., CAMHB, read-out: MIC K. p ATCC 43816
In short: as §1

[5] = Human microsome stability assay; assay type: in vitro ADME; conditions: human liver microsomes 0.5 mg/mL, 37° C., pH 7.4, NADPH regenerating system
In short: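 Compound […] with 0.5 mg/mL human liver microsomal protein in 100 mM potassium phosphate pH 7.4, 10 min preincubation at 37 °C, started with NADPH regenerating system. Sampled 0–30 min, remaining compound by LC-MS/MS; clearance binned low <7, medium 7–16.2, high >16.2 mL/min/kg.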

Sequence of Escherichia coli UDP-2,3-diacylglucosamine hydrolase (LpxH) (P43341 whole entry): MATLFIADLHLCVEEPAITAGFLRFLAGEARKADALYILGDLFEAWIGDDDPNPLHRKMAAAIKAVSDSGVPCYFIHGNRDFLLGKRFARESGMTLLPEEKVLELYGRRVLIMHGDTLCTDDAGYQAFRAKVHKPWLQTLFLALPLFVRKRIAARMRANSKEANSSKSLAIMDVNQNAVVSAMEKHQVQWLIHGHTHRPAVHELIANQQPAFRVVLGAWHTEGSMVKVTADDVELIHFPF

CC1(N)CCN(C(=O)[C@H]2CC[C@H](C(F)(F)c3cc(Cl)nc(N4CCN(S(=O)(=O)c5ccc(N6C[C@H](N)CC6=O)cc5)CC4)c3)CC2)CC1 [Example 004, Trans-(4R)-4-amino-1-[4-[4-[4-[[4-(4-amino-4-methyl-piperidine-1-carbonyl)cyclohexyl]-difluoro-methyl]-6-chloro-2-pyridyl]piperazin-1-yl]sulfonylphenyl]pyrrolidin-2-one]
IC50 [1]: 8.47 nM | MIC [2]: 0.83 µg/mL (≈ 1.17 µM) | MIC [3]: 1.1 µg/mL (≈ 1.55 µM) | MIC [4]: 1.1 µg/mL (≈ 1.55 µM) | Clearance of Human microsome [5]: 6.15 mL/min/kg

CN1CC2(C1)CN(C(=O)[C@H]1CC[C@H](C(F)(F)c3cc(Cl)nc(N4CCN(S(=O)(=O)c5ccc(N6C[C@H](N)CC6=O)cc5)CC4)c3)CC1)C2 [Example 005, Trans-(4R)-4-amino-1-[4-[4-[6-chloro-4-[difluoro-[4-(6-methyl-2,6-diazaspiro[3.3]heptane-2-carbonyl)cyclohexyl]methyl]-2-pyridyl]piperazin-1-yl]sulfonylphenyl]pyrrolidin-2-one]
IC50 [1]: 4.25 nM | MIC [2]: 3.3 µg/mL (≈ 4.67 µM) | MIC [3]: 2.2 µg/mL (≈ 3.12 µM) | MIC [4]: 2.2 µg/mL (≈ 3.12 µM) | Clearance of Human microsome [5]: 6.15 mL/min/kg

N[C@@H]1CC(=O)N(c2ccc(S(=O)(=O)N3CCN(c4cc(C(F)(F)[C@H]5CC[C@H](C(=O)NC6CNCC6O)CC5)cc(Cl)n4)CC3)cc2)C1 (some centres unmarked) [Example 006]
IC50 [1]: 4.31 nM | MIC [2]: 1.1 µg/mL (≈ 1.58 µM) | MIC [3]: 1.1 µg/mL (≈ 1.58 µM) | MIC [4]: 1.1 µg/mL (≈ 1.58 µM) | Clearance of Human microsome [5]: 6.15 mL/min/kg

NC1CC(NC(=O)[C@H]2CC[C@H](C(F)(F)c3cc(Cl)nc(N4CCN(S(=O)(=O)c5ccc(N6C[C@H](N)CC6=O)cc5)CC4)c3)CC2)C1 (stereo partly drawn) [Example 007, Trans-N-(3-aminocyclobutyl)-4-[[2-chloro-6-[4-[4-[(4R)-4-amino-2-oxo-pyrrolidin-1-yl]phenyl]sulfonylpiperazin-1-yl]-4-pyridyl]-difluoro-methyl]cyclohexanecarboxamide]
IC50 [1]: 7.35 nM | MIC [2]: 1.1 µg/mL (≈ 1.62 µM) | MIC [3]: 1.1 µg/mL (≈ 1.62 µM) | MIC [4]: 0.53 µg/mL (≈ 0.779 µM) | Clearance of Human microsome [5]: 6.90 mL/min/kg

CC(CN)NC(=O)[C@H]1CC[C@H](C(F)(F)c2cc(Cl)nc(N3CCN(S(=O)(=O)c4ccc(N5C[C@H](N)CC5=O)cc4)CC3)c2)CC1 (stereo partly drawn) [Example 008, Trans-N-(2-amino-1-methyl-ethyl)-4-[[2-chloro-6-[4-[4-[(4R)-4-amino-2-oxo-pyrrolidin-1-yl]phenyl]sulfonylpiperazin-1-yl]-4-pyridyl]-difluoro-methyl]cyclohexanecarboxamide]
IC50 [1]: 5.99 nM | MIC [2]: 1 µg/mL (≈ 1.5 µM) | MIC [3]: 0.52 µg/mL (≈ 0.778 µM) | MIC [4]: 0.52 µg/mL (≈ 0.778 µM) | Clearance of Human microsome [5]: 8.07 mL/min/kg

N[C@@H]1CC(=O)N(c2ccc(S(=O)(=O)N3CCN(c4cc(C(F)(F)[C@H]5CC[C@H](C(=O)NCCN6CCCC6)CC5)cc(Cl)n4)CC3)cc2)C1 [Example 009, Trans-4-[[2-chloro-6-[4-[4-[(4R)-4-amino-2-oxo-pyrrolidin-1-yl]phenyl]sulfonylpiperazin-1-yl]-4-pyridyl]-difluoro-methyl]-N-(2-pyrrolidin-1-ylethyl)cyclohexanecarboxamide]
IC50 [1]: < 2.82 nM | MIC [2]: 1.5 µg/mL (≈ 2.12 µM) | MIC [3]: 1.5 µg/mL (≈ 2.12 µM) | MIC [4]: 1.5 µg/mL (≈ 2.12 µM) | Clearance of Human microsome [5]: 11.13 mL/min/kg

NCC1(NC(=O)[C@H]2CC[C@H](C(F)(F)c3cc(Cl)nc(N4CCN(S(=O)(=O)c5ccc(N6C[C@H](N)CC6=O)cc5)CC4)c3)CC2)CC1 [Example 012, Trans-N-[1-(aminomethyl)cyclopropyl]-4-[[2-[4-[4-[(4R)-4-amino-2-oxo-pyrrolidin-1-yl]phenyl]sulfonylpiperazin-1-yl]-6-chloro-4-pyridyl]-difluoro-methyl]cyclohexanecarboxamide]
IC50 [1]: 2.94 nM | MIC [2]: 0.57 µg/mL (≈ 0.838 µM) | MIC [3]: 0.57 µg/mL (≈ 0.838 µM) | MIC [4]: 0.57 µg/mL (≈ 0.838 µM) | Clearance of Human microsome [5]: 6.19 mL/min/kg

Source: patent US20240417387A1, “SULFONYLPIPERAZINYL COMPOUNDS FOR TREATMENT OF BACTERIAL INFECTIONS” (Hoffmann-La Roche Inc., priority 2021, published 2024)
